Values of other authors in publication PMC12284023, “Metabolomic and chemometric profiling of crimson grapes during drying and its impact on antidiabetic activity” (NPJ Science of Food, 2025).
Values after ≈ are worked out from the molar mass of the structure shown. Blank lines part the entries; values can stand above or below the compound they belong to.

What was measured:
diabetic mice = tested on: diabetic mice; set-up: method as in ref 58 = [58]; 58. Ding H Blood glucose-lowering activity of protocatechuic acid is mediated by inhibiting α-glucosidase Food Sci. Hum. Wellness 2024 13 1212 1219 Ding, H. et al. Blood glucose-lowering activity of p; conditions: diabetic mice ref 58
pancreatic lipase = target: pancreatic lipase; set-up: method as in PMID 26284613; conditions: in vitro, dose-dependent ref 61
[1] = tested on: streptozotocin-induced diabetic rats; set-up: method as in PMID 35932369; conditions: streptozotocin-induced diabetic rats ref 62
[2] = tested on: glycation products such as 5-hydroxymethylfurfural, fructosamine, and advanced glycation end products; set-up: method as in ref 58 = [58]; 58. Ding H Blood glucose-lowering activity of protocatechuic acid is mediated by inhibiting α-glucosidase Food Sci. Hum. Wellness 2024 13 1212 1219 Ding, H. et al. Blood glucose-lowering activity of p; conditions: advanced glycation end products ref 58
α-glucosidase enzyme = target: α-glucosidase enzyme; set-up: method as in ref 56 = [56]; 56. Cásedas G Cyanidin-3-O-glucoside inhibits different enzymes involved in central nervous system pathologies and type-2 diabetes South Afr. J. Bot. 2019 120 241 246 Cásedas, G. et al. Cyanidin-3-O-g; conditions: read-out: IC50 against α-glucosidase enzyme
[3] = tested on: streptozotocin-induced diabetic mouse; set-up: method as in ref 57 = [57]; 57. Choi K Choi S-I Park MH Han J-S Cyanidin-3-O-glucoside ameliorates postprandial hyperglycemia in diabetic mice J. Life Sci. 2017 27 32 37 Choi, K., Choi, S.-I., Park, M. H. & Han, J.-S. Cyanidin-3; conditions: oral administration of soluble starch with compound, streptozotocin-induced diabetic mouse ref 57
[4] = tested on: streptozotocin-injected rat; set-up: method as in PMID 32446112; conditions: via suppressing uric acid, plasma glucose, triglyceride, total cholesterol, creatinine, IL-6, TNF-α, MCP-1 levels ref 60

SMILES: O=C(O)c1ccc(O)c(O)c1 [protocatechuic acid]
postprandial hypoglycemic activity (diabetic mice): acclaimed postprandial hypoglycemic activity

SMILES: O=c1ccc2cc(O[C@@H]3O[C@H](CO)[C@@H](O)[C@H](O)[C@H]3O)c(O)cc2o1 [Esculin]
IC50 pancreatic lipase inhibition (pancreatic lipase): 11.6 ± 0.92 µg/mL (≈ 34.1 µM)

SMILES: CC(C)(C)[C@]1(O)CC2OC(=O)CC23C(=O)OC2OC(=O)[C@H](O)C231 (some centres unmarked) [bilobalide, Bilobalide]
anti-retinopathy activity [1]: exhibited anti-retinopathy activity | blood glucose levels [1]: decreased blood glucose levels

SMILES: O=C(O)[C@H]1O[C@@H](Oc2c(-c3ccc(O)c(O)c3)oc3cc(O)cc(O)c3c2=O)[C@H](O)[C@@H](O)[C@@H]1O [quercetin-3-O-glucuronide, Quercetin-3-O-glucuronide]
suppression of glycation products [2]: effectively suppressed

IC50 (α-glucosidase enzyme): 480 µM
SMILES: OC[C@H]1O[C@@H](Oc2cc3c(O)cc(O)cc3[o+]c2-c2ccc(O)c(O)c2)[C@H](O)[C@@H](O)[C@@H]1O [Cyanidin-3-O-glucoside]
levels of postprandial blood glucose [3]: significantly decreased

SMILES: CC(C)[C@@H](C)/C=C/[C@@H](C)[C@H]1CC[C@H]2C3=CC=C4C[C@@H](O)CC[C@]4(C)[C@H]3CC[C@]12C [ergosterol, Ergosterol]
diabetic nephropathy [4]: attenuated diabetic nephropathy
